Estimated tpol values and fractional extension activity data for one substance are collected here from patent publication US10093973B2, “Polymerase compositions and methods” (LIFE TECHNOLOGIES CORPORATION, priority 2009, dated 2018).

Numbering of substitutions follows the chain as printed.

Test [1] relates to ωdN4P and extendible AF546 primer:template duplex. As to the kind of experiment: Stopped-flow tpol measurement of Example 8. The class given is biochemical. As to conditions: modified versus reference polymerase, ωdN4P 14 μM. On the procedure: In this example, the tpol values of an exemplary modified polymerase comprising the amino acid of SEQ ID NO: 8 and was measured and compared to the tpol value of an exemplary reference polymerase comprising the amino acid sequence of SEQ ID NO: 20. These kinetic parameters were evaluated using a stopped-flow assay wherein a mixture comprising an extendible dye-labeled primer:template duplex and test polymerase was mixed with a solution comprising terminally-labeled nucleotide tetraphosphates or terminally-labeled nucleotide hexaphosphates. These terminally-labeled nucleotides comprise terminal-phosphate-labeled nucleotides having an alkyl linker with a functional amine group attached to the dye. The fluorescence of the resulting mixture was monitored over time. Unless noted otherwise, all concentrations refer to the initial concentrations prior to mixing. […]
Each primer-template duplex (200 nM) was preincubated with test polymerase (660 nM) and to form an E.DNA binary complex. This binary complex was mixed with the cognate omega-labeled nucleoside tetraphosphate (ωdN4P; 14 μM) in a stopped-flow experiment, and the fluorescence at both 546 nm and 647 nm was monitored following mixing. The averaged stopped-flow fluorescence traces were fitted with the double exponential function of Equation (2) to extrapolate the tpol value of the test polymerase: […]

The test system of another test is primer-template duplex. The test is described as follows: Fractional extension activity assay. The class given is biochemical. As to conditions: versus reference RB69 (SEQ ID NO: 15) and His-tagged Phi-29 (SEQ ID NO: 20); 330 nM enzyme, 1 μM dNTP, room temperature, 10 seconds. On the procedure:
The fractional extension activity of an exemplary modified polymerase having the amino acid of SEQ ID NO: 8 (referred to as “B104(exo-)” in FIG. 3) was measured and compared to the fractional extension activities of two different exemplary reference polymerases, including an RB69 reference polymerase comprising the amino acid sequence SEQ ID NO: 15 and a His-tagged Phi-29 reference polymerase comprising the amino acid sequence of SEQ ID NO: 20 (referred to herein as “HP1 polymerase”). All polymerases were prepared according to the method of Example 1. Both modified and reference polymerases were evaluated and compared in an assay to measure the fractional extension activity of each polymerase, i.e., the fraction of nucleic acid templates that are extended by at least one nucleotide in a polymerase reaction. In this assay, the fractional extension activity of a polymerase is defined as the fraction (measured as a percentage fraction) of nucleic acid templates that are extended by at least one nucleotide by the test or reference polymerase under the following reaction conditions: 50 mM Tris, pH 7.0, 50 mM NaCl, 1 mM MnCl2, 1 μM dNTP, 330 nM enzyme, 100 nM primer-template duplex and 0.5% BSA, wherein the extension is performed at room temperature for 10 seconds.
The primer-template duplex was formed by annealing the following polynucleotides: […]

With “mB103 (SEQ ID: 8): B103 polymerase triple mutant with D166A, F383L and D384N”, the estimated tpol values result in test [1] is listed as “comparable”. For the same substance, the fractional extension activity entry with primer-template duplex is on record as “higher”.
